Measurements: US20240182445A1 (ONO PHARMACEUTICAL CO., LTD., priority 2019, published 2024)

target: T1, human TREK-1 (Homo sapiens, UniProt O95069); assay: TREK-1 Thallium (Tl+) flux assay, Method 1; type: cell-based; conditions: TREK-1 Thallium (Tl+) flux assay, Method 1
T1 construct: expressed in transfected cells
T1 sequence (O95069 1-426): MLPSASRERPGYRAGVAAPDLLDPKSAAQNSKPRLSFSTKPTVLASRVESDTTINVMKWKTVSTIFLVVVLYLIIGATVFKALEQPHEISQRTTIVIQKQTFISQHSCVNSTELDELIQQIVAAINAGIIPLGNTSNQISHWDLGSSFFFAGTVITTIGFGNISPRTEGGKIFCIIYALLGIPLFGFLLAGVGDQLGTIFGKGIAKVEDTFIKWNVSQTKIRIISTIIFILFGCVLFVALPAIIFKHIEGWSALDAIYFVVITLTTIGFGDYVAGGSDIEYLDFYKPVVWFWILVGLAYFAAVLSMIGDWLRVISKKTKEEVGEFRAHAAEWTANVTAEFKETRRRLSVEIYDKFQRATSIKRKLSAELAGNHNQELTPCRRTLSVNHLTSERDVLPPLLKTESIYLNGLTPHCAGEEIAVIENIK
Procedure, shortened: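 Readout: Thallos fluorescence ratio, taken 25 s post-thallium relative to the pre-thallium baseline average, then converted to % inhibition. Cells were CHO-K1 stably expressing human TREK-1, dye-loaded and exposed to test compound (vehicle 0.3% DMSO) for 10 min prior to thallium stimulation.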

IC50 [nM]	SMILES
4850	Cc1cc(OCc2ccccc2)ccc1NC(=O)c1c(Cl)cnn1CC1CN(C(=O)C2CCC2)CCO1 (stereo not shown) [Compound 424, N-(4-(benzyloxy)-2-methylphenyl)-4-chloro-1-((4-(cyclobutanecarbonyl)morpholin-2-yl)methyl)-1H-pyrazole-5-carboxamide]

same assay, conditions: TREK-1 Thallium (Tl+) flux assay; no *^12 (Method 2) mark on these rows

IC50 [nM]	SMILES
390	Cc1cc(C#Cc2ccc(F)cc2)cnc1NC(=O)c1c(Cl)cnn1CCN1CCN(C(=O)C2COCCO2)CC1 (stereo not shown) [Compound 246, 1-(2-(4-(1,4-dioxane-2-carbonyl)piperazin-1-yl)ethyl)-4-chloro-N-(5-((4-fluorophenyl)ethynyl)-3-methylpyridin-2-yl)-1H-pyrazole-5-carboxamide]
390	CC(C)(C)C(=O)N1CCC(n2ncc(Cl)c2C(=O)Nc2ncc(C#Cc3cccs3)cc2F)CC1 [Compound 247, 4-chloro-N-(3-fluoro-5-(thiophen-2-ylethynyl)pyridin-2-yl)-1-(1-pivaloylpiperidin-4-yl)-1H-pyrazole-5-carboxamide]
590	CC(=O)N1CCC(CCn2ncc(Cl)c2C(=O)Nc2ncc(C#Cc3cccs3)cc2F)CC1 [Compound 311, 1-(2-(1-acetylpiperidin-4-yl)ethyl)-4-chloro-N-(3-fluoro-5-(thiophen-2-ylethynyl)pyridin-2-yl)-1H-pyrazole-5-carboxamide]
490	Cc1cc(C#Cc2ccc(F)cc2)cnc1NC(=O)c1c(Cl)cnn1CC1CCN(C(=O)C(C)C)CC1C (stereo not shown) [Compound 284, 4-chloro-N-(5-((4-fluorophenyl)ethynyl)-3-methylpyridin-2-yl)-1-((1-isobutyryl-3-methylpiperidin-4-yl)methyl)-1H-pyrazole-5-carboxamide]
760	Cc1cc(C#Cc2ccc(F)cc2)cnc1NC(=O)c1c(Cl)cnn1C[C@@H]1CCCN(C(=O)OC(C)(C)C)C1 [Compound 344, tert-butyl (R)-3-((4-chloro-5-((5-((4-fluorophenyl)ethynyl)-3-methylpyridin-2-yl)carbamoyl)-1H-pyrazol-1-yl)methyl)piperidine-1-carboxylate]
530	Cc1cc(C#Cc2ccccc2)cnc1NC(=O)c1c(Cl)cnn1CC1(C)CCN(C(=O)C2CC2)CC1 [Compound 295]
1000	Cc1cc(C#Cc2ccccc2)cnc1NC(=O)c1c(Cl)cnn1CC1CCC(C)(C)O1 (stereo not shown) [Compound 371, 4-chloro-1-((5,5-dimethyltetrahydrofuran-2-yl)methyl)-N-(3-methyl-5-(phenylethynyl)pyridin-2-yl)-1H-pyrazole-5-carboxamide]
600	CC(C)(C)OC(=O)N1CC[C@H](n2ncc(Cl)c2C(=O)Nc2ncc(C#Cc3ccccc3)cc2F)C1 [Compound 315, tert-butyl (S)-3-(4-chloro-5-((3-fluoro-5-(phenylethynyl)pyridin-2-yl)carbamoyl)-1H-pyrazol-1-yl)pyrrolidine-1-carboxylate]
660	CC(=O)N1C[C@H]2C[C@H](n3ncc(Cl)c3C(=O)Nc3ncc(C#Cc4ccc(F)cc4)cc3C)C[C@H]2C1 [Compound 331, 1-[(3aR,5s,6aS)-2-acetyloctahydrocyclopenta[c]pyrrol-5-yl]-4-chloro-N-{5-[(4-fluorophenyl)ethynyl]-3-methylpyridin-2-yl}-1H-pyrazole-5-carboxamide]
1130	Cc1ncc(Cn2ncc(Cl)c2C(=O)Nc2ncc(C#Cc3ccccc3)cc2C)s1 [Compound 374, 4-chloro-N-(3-methyl-5-(phenylethynyl)pyridin-2-yl)-1-((2-methylthiazol-5-yl)methyl)-1H-pyrazole-5-carboxamide]
310	CC(=O)N1CC[C@@H](Cn2ncc(Cl)c2C(=O)Nc2ncc(C#Cc3ccccc3)cc2C)[C@H](F)C1 [Compound 208, 1-(((3S,4S)-1-acetyl-3-fluoropiperidin-4-yl)methyl)-4-chloro-N-(3-methyl-5-(phenylethynyl)pyridin-2-yl)-1H-pyrazole-5-carboxamide]
350	CC(=O)N1CCC(F)(Cn2ncc(Cl)c2C(=O)Nc2ncc(C#Cc3ccccc3)cc2F)CC1 [Compound 228, 1-((1-acetyl-4-fluoropiperidin-4-yl)methyl)-4-chloro-N-(3-fluoro-5-(phenylethynyl)pyridin-2-yl)-1H-pyrazole-5-carboxamide]
400	Cc1cc(C#Cc2cccc(F)c2)cnc1NC(=O)c1c(Cl)cnn1CC1CCN(C(=O)C(C)C)CC1 [Compound 249, 4-chloro-N-(5-((3-fluorophenyl)ethynyl)-3-methylpyridin-2-yl)-1-((1-isobutyrylpiperidin-4-yl)methyl)-1H-pyrazole-5-carboxamide]
940	Cc1cc(C#Cc2ccc(F)cc2)cnc1NC(=O)c1c(Cl)cnn1C[C@H]1CCCN(C(=O)OC(C)(C)C)C1 [Compound 368, tert-butyl (S)-3-((4-chloro-5-((5-((4-fluorophenyl)ethynyl)-3-methylpyridin-2-yl)carbamoyl)-1H-pyrazol-1-yl)methyl)piperidine-1-carboxylate]

same assay, conditions: TREK-1 Thallium (Tl+) flux assay; values without footnote *12 are Method 1

IC50 [nM]	SMILES
100	CC(=O)N1CC[C@@H](n2ncc(Cl)c2C(=O)Nc2ncc(C#Cc3ccccc3)cc2C)[C@H](F)C1 [Compound 30, […]]
130	O=C(Nc1ncc(C#Cc2ccccc2)cc1F)c1c(Cl)cnn1CC1CCN(C(=O)C2CC2)C1 (stereo not shown) [Compound 43, 4-chloro-1-((1-(cyclopropanecarbonyl)pyrrolidin-3-yl)methyl)-N-(3-fluoro-5-(phenylethynyl)pyridin-2-yl)-1H-pyrazole-5-carboxamide]
270	Cc1cc(C#Cc2ccccc2)cnc1NC(=O)c1c(Cl)cnn1CCCC#N [Compound 167, 4-chloro-1-(3-cyanopropyl)-N-(3-methyl-5-(phenylethynyl)pyridin-2-yl)-1H-pyrazole-5-carboxamide]
120	CC(=O)N1CCC(C#N)(Cn2ncc(Cl)c2C(=O)Nc2ncc(C#Cc3ccccc3)cc2F)CC1 [Compound 39, 1-((1-acetyl-4-cyanopiperidin-4-yl)methyl)-4-chloro-N-(3-fluoro-5-(phenylethynyl)pyridin-2-yl)-1H-pyrazole-5-carboxamide]
160	CC(=O)N1CCC(n2ncc(Cl)c2C(=O)Nc2ncc(C#Cc3cccc(F)c3)cc2C)CC1 [Compound 71, 1-(1-acetylpiperidin-4-yl)-4-chloro-N-(5-((3-fluorophenyl)ethynyl)-3-methylpyridin-2-yl)-1H-pyrazole-5-carboxamide]
260	Cc1cc(C#Cc2ccc(F)cc2)cnc1NC(=O)c1c(Cl)cnn1[C@H]1CC[C@@H](NC(=O)C2CC2)CC1 [Compound 165, 4-chloro-1-(cis-4-(cyclopropanecarboxamido)cyclohexyl)-N-(5-((4-fluorophenyl)ethynyl)-3-methylpyridin-2-yl)-1H-pyrazole-5-carboxamide]
130	CC(=O)N1CCC(Cn2ncc(Cl)c2C(=O)Nc2ncc(C#Cc3ccccc3)cc2F)CC1 [Compound 42, 1-((1-acetylpiperidin-4-yl)methyl)-4-chloro-N-(3-fluoro-5-(phenylethynyl)pyridin-2-yl)-1H-pyrazole-5-carboxamide]
190	CC(=O)N1CC[C@@H](Cn2ncc(Cl)c2C(=O)Nc2ncc(C#Cc3ccccc3)cc2C)[C@@H](F)C1 [Compound 109, 1-(((3R,4S)-1-acetyl-3-fluoropiperidin-4-yl)methyl)-4-chloro-N-(3-methyl-5-(phenylethynyl)pyridin-2-yl)-1H-pyrazole-5-carboxamide]
290	O=C(Nc1ncc(C#Cc2ccccc2)cc1F)c1c(Cl)cnn1-c1ccc2c(c1)OCCO2 [Compound 189, 4-chloro-1-(2,3-dihydrobenzo[b][1,4]dioxin-6-yl)-N-(3-fluoro-5-(phenylethynyl)pyridin-2-yl)-1H-pyrazole-5-carboxamide]
110	CC(=O)N1CCC(C(C)n2ncc(Cl)c2C(=O)Nc2ncc(C#Cc3ccccc3)cc2F)CC1 (stereo not shown) [Compound 35, 1-(1-(1-acetylpiperidin-4-yl)ethyl)-4-chloro-N-(3-fluoro-5-(phenylethynyl)pyridin-2-yl)-1H-pyrazole-5-carboxamide]
210	CC(=O)N1CCC(n2ncc(Cl)c2C(=O)Nc2ncc(C#Cc3ccccc3)cc2F)C1 (stereo not shown) [Compound 121, 1-(1-acetylpyrrolidin-3-yl)-4-chloro-N-(3-fluoro-5-(phenylethynyl)pyridin-2-yl)-1H-pyrazole-5-carboxamide]
180	CC1CC1C(=O)N1CCC(n2ncc(Cl)c2C(=O)Nc2ncc(C#Cc3ccccc3)cc2F)CC1 (stereo not shown) [Compound 91, 4-chloro-N-(3-fluoro-5-(phenylethynyl)pyridin-2-yl)-1-(1-(2-methylcyclopropane-1-carbonyl)piperidin-4-yl)-1H-pyrazole-5-carboxamide]

same assay, conditions: read-out: Tl^+ Assay % inhibition at 30 uM (Minus value indicates activation of TREK-1); at 30 uM; CHO-K1 cells stably expressing human TREK-1; minus = activation

inhibition at 30 µM [%]	SMILES
-123	Cc1cc(C#Cc2ccccc2F)cnc1NC(=O)c1nn(CCC2CCN(C(=O)C3CC3)CC2)cc1Cl [Compound 441, 4-chloro-1-(2-(1-(cyclopropanecarbonyl)piperidin-4-yl)ethyl)-N-(5-((2-fluorophenyl)ethynyl)-3-methylpyridin-2-yl)-1H-pyrazole-3-carboxamide]
